“Also recorded” adds a separate entry of the source. Structures can show the parent of a compound that is named as a salt.
What was measured:
A549 cells = experiment: MTT assay, IC50 and MTC; conditions: for IC50 fold higher than that for compound 2 / MTC (maximum tolerated concentration): A549 cells, MTT; for MTC (maximum tolerated concentration): 24 h of treatment; for IC50: Homo sapiens, A549, 24 h, read-out: IC50 ± SEM
Description: In further experiments, MTT (3-(4,5-di-methylthiazol-2-yl)-2,5-diphenyltetrazolium bromide) assay was employed to evaluate the toxicological indexes of the newly synthesized compounds, including IC50 (half-maximal inhibitory concentration) and MTC (maximum tolerated concentration).
IC50 and MTC were determined through MTT assays. The MTT assay was performed according to [35]. In brief, the A549 cell line was plated in 96-well plates (100 µL, 9 × 10^3 cells per well) and incubated overnight. The tested compounds were prepared in phosphate buffer saline (PBS; Sigma–Aldrich) and serially diluted in DMEM (Dulbecco’s Modified Eagle Medium). An untreated control was included as a viability standard in each plate. After 24 h of treatment, the viability of A549 cells was measured at 570 nm. All experiments were performed in triplicate. The GraphPad Prism statistics software v5.04 (GraphPad Software Inc., San Diego, CA, USA) was used to calculate the IC50 values for parameter nonlinear regression. Values are expressed as mean ± SEM.

Solubility (in words) = format: physicochemical

Row | SMILES | IC50 fold higher than that for compound 2 (A549 cells) | MTC (maximum tolerated concentration) (A549 cells) | IC50 (A549 cells) | solubility (in words) (Solubility (in words))
1 | Cc1cc(OCC(O)CN2CCN(CCO)CC2)ccc1Cl.Cl.Cl (centres unmarked) [Compound 4, 1-(4-chloro-3-methylphenoxy)-3-(4-(2-hydroxyethyl)piperazin-1-yl)propan-2-ol dihydrochloride] | 16.0 fold | 0.05 mM | 640 ± 30 µM | –
2 | Cl.Cl.Cl.OCCN1CCN(CCCNc2ccccc2)CC1 [Compound 5, 2-(4-(3-(phenylamino)propyl)piperazin-1-yl)ethanol trihydrochloride] | 33.8 fold | 0.05 mM | 1350 ± 120 µM | –
3 | Cl.Cl.Cl.OCCN1CCN(CCCNc2cccc3ccccc23)CC1 [Compound 6, 2-(4-(3-(naphthalen-1-ylamino)propyl)piperazin-1-yl)ethanol trihydrochloride] | 11.3 fold | 0.02 mM | 450 ± 10 µM | –
4 | COc1ccc(NCCCN2CCN(CCO)CC2)cc1.Cl.Cl.Cl [Compound 7, 2-(4-(3-((4-methoxyphenyl)amino)propyl)piperazin-1-yl)ethanol trihydrochloride] | 63.8 fold | 0.39 mM | 2550 ± 210 µM | –
5 | OCCN1CCN(CC(O)CN2CCN(CCO)CC2)CC1 [Compound 8, 1.3-bis [4-(2-hydroxyethyl)piperazin-1-yl)propan-2-ol tetrahydrochloride] | 625 fold | 6.25 mM | > 25000 µM | excellently soluble in media
6 | Cl.Cl.OC(CNc1ccccc1)CNc1ccccc1 [Compound 9, 1,3-bis(phenylamino)propan-2-ol dihydrochloride] | 6.0 fold | 0.09 mM | 240 ± 10 µM | low solubility; also recorded: insufficiently soluble for necessary concentrations
7 | Cl.Cl.Cl.OCCN1CCN(CC(O)CNc2ccccc2)CC1 (centres unmarked) [Compound 10, 1-(phenylamino]-3-[4-(2-hydroxyethyl)piperazin-1-yl)propan-2-ol trihydrochloride] | 126.5 fold | 1.56 mM | 5060 ± 230 µM | –

— paper PMC7038073, “Substituted Piperazines as Novel Potential Radioprotective Agents” (Molecules, 2020)
